Assay [1] has as its target T1, F508delCFTR (Homo sapiens, UniProt P13569, DEL508-508).
T1 construct: expressed in transfected cells; host or cells: CFBE41o- human lung-derived epithelial cells (CFBE41o-F508delCFTR-HRP), doxycycline-inducible
Kind of assay: Cell Surface Expression-Horse Radish Peroxidase (CSE-HRP) assay, test compound with co-corrector.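 For Maximum % activity (with co-corrector): percent of 2 µM positive control corrector over DMSO; co-corrector is that same compound.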 Format: cell-based. The settings on record: for EC50: CSE-HRP assay, test compound with 2 μM co-corrector; for Maximum % activity (with co-corrector): maximum at any tested concentration, normalized to on-plate positive control, with 2 μM co-corrector. Put shortly:
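CFBE41o- cells expressing F508delCFTR with HRP in the fourth exofacial loop, induced with 0.5 μg/mL doxycycline for 72 h, then treated 18-24 h at 33° C. with compound (8 points, top 20 μM, 3-fold) plus 2 μM co-corrector. Surface HRP read by luminol luminescence; activity normalised to positive control, EC50 from variable-slope sigmoidal fit.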

Assay [2] has as its target T1, F508delCFTR. Kind of assay: Cell Surface Expression-Horse Radish Peroxidase (CSE-HRP) assay, test compound without co-corrector.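 For Emax: percent of on-plate 2 µM positive control corrector response over DMSO.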 The class given is cell-based. Conditions: for EC50: CSE-HRP assay, test compound without co-corrector; for Emax: maximum at any tested concentration, normalized to on-plate positive control, without co-corrector. In short, it runs like this: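 CFBE41o- cells expressing F508delCFTR with HRP in the fourth exofacial loop, induced with 0.5 μg/mL doxycycline for 72 h at 37° C, then exposed to compound alone for 18-24 h at 33° C, 8-point 3-fold series from 20 μM. Surface HRP read by luminol luminescence, normalized to positive corrector control versus DMSO; EC50 from variable-slope sigmoidal fit of three replicate plates.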

T1 sequence (P13569 with tags, fused parts or gaps DEL508-508): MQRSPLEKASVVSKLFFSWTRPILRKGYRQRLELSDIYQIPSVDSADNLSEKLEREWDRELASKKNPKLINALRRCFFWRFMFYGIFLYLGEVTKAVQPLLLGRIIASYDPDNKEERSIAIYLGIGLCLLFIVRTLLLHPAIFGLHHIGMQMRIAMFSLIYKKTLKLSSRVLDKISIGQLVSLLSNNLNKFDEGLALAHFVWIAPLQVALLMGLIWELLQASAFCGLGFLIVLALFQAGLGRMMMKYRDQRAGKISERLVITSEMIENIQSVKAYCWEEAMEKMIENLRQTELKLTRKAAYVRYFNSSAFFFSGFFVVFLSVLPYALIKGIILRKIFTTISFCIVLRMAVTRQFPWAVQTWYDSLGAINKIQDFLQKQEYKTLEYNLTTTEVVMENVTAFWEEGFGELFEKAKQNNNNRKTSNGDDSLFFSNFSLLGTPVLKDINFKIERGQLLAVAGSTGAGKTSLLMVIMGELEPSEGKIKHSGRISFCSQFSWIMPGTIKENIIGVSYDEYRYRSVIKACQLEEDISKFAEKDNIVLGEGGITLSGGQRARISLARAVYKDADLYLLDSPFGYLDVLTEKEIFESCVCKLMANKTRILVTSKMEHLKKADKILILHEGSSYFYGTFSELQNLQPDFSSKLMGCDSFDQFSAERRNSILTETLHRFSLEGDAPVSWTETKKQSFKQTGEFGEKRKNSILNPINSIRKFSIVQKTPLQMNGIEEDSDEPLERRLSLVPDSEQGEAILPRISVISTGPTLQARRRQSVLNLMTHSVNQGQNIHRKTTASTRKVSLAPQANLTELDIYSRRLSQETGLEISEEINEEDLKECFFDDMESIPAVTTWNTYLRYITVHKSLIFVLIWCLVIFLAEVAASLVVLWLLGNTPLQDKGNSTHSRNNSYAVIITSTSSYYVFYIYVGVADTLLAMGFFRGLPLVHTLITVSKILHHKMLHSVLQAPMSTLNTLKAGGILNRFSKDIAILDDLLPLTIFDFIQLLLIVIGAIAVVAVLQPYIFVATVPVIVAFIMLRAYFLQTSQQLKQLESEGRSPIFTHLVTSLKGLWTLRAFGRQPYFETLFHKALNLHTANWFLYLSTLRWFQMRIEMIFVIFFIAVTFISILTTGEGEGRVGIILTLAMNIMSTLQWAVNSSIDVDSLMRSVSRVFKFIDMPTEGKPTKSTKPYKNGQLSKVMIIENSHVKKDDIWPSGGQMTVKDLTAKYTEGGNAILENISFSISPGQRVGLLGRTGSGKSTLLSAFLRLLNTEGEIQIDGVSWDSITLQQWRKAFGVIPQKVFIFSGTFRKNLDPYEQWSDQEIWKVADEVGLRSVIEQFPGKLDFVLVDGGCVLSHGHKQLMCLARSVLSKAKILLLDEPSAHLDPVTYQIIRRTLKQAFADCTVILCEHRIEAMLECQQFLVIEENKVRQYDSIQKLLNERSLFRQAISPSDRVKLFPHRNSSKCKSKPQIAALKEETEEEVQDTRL

A word on the EC50: it is the concentration that produces a half-maximal response. Read a low EC50 as a more potent agent. For orientation: Emax means the greatest response seen or fitted, relative to the assay's reference. Take `CCC1(C(=O)NS(=O)(=O)c2cccc(Cl)c2)CCc2c(Cl)cccc21` (centres unmarked) [III-117]: on F508delCFTR [1], the concentration for a half-maximal effect (EC50) was less than 3 µM; the “Maximum % activity (with co-corrector)” value is “++ (≥150 and <350)”. On F508delCFTR [2], this compound showed an EC50 of 3 to 10 µM and an Emax of less than 50%.
Turning to `CCC1(C(=O)NS(=O)(=O)c2cc(C)ccc2Cl)CCc2c(Cl)cccc21` (centres unmarked) [III-118], on F508delCFTR [1], the EC50 is not below 10 µM and the “Maximum % activity (with co-corrector)” value was “+ (<150)”. On F508delCFTR [2], the EC50 was not below 10 µM and the Emax was less than 50%.
In the case of `CCC1(C(=O)NS(=O)(=O)c2ccc(OC(F)(F)F)cc2)CCc2c(Cl)cccc21` (centres unmarked) [III-119], at F508delCFTR [1], the concentration giving a half-maximal response (EC50) was in the range of 3 to 10 µM and the “Maximum % activity (with co-corrector)” value is listed as “+ (<150)”. On F508delCFTR [2], this compound registered an EC50 not below 10 µM and an Emax of less than 50%.
As to `CCC1(C(=O)NS(=O)(=O)c2ccccc2C#N)CCc2c(Cl)cccc21` (centres unmarked) [III-120], on F508delCFTR [1], the EC50 was not below 10 µM and the “Maximum % activity (with co-corrector)” value is on record as “+ (<150)”. On F508delCFTR [2], this compound returned an EC50 not below 10 µM and an Emax of less than 50%.
As to `CCC1(C(=O)NS(=O)(=O)c2c(OC)cccc2OC)CCc2c(Cl)cccc21` (centres unmarked) [III-121], on F508delCFTR [1], the EC50 was not below 10 µM and the “Maximum % activity (with co-corrector)” value was “+ (<150)”. At F508delCFTR [2], this compound showed a concentration for a half-maximal effect (EC50) not below 10 µM and an Emax of less than 50%.
As for `CCC1(C(=O)NS(=O)(=O)c2ccccc2C(F)(F)F)CCc2c(Cl)cccc21` (centres unmarked) [III-122], on F508delCFTR [1], the EC50 is not below 10 µM and the “Maximum % activity (with co-corrector)” value was “+ (<150)”. At F508delCFTR [2], the EC50 is not below 10 µM and the Emax is less than 50%.
As for `CCC1(C(=O)NS(=O)(=O)c2ccc3c(c2)OCCO3)CCc2c(Cl)cccc21` (centres unmarked) [III-123], at F508delCFTR [1], the concentration giving a half-maximal response (EC50) lay within 3 to 10 µM; the “Maximum % activity (with co-corrector)” value is “++ (≥150 and <350)”. At F508delCFTR [2], the half-maximal effective concentration (EC50) is not below 10 µM and the Emax is less than 50%.
Regarding `CCC1(C(=O)NS(=O)(=O)c2c(C)cccc2Cl)CCc2c(Cl)cccc21` (centres unmarked) [III-124], on F508delCFTR [1], the EC50 was not below 10 µM and the “Maximum % activity (with co-corrector)” value is on record as “+ (<150)”. On F508delCFTR [2], this compound registered an EC50 not below 10 µM and an Emax of less than 50%.
Consider `CCC1(C(=O)NS(=O)(=O)c2ccc(Cl)cc2)CCc2c(Cl)cccc21` (centres unmarked) [III-125], for which, at F508delCFTR [1], the 50% effective concentration (EC50) was in the range of 3 to 10 µM; the “Maximum % activity (with co-corrector)” value was “++ (≥150 and <350)”. In addition, at F508delCFTR [2], the EC50 fell in the range of 3 to 10 µM and the Emax is less than 50%.
As for `CCC1(C(=O)NS(=O)(=O)c2c(C)cccc2C(F)(F)F)CCc2c(Cl)cccc21` (centres unmarked) [III-126], at F508delCFTR [1], the EC50 is not below 10 µM and the “Maximum % activity (with co-corrector)” value is “+ (<150)”. On F508delCFTR [2], this compound came in with a concentration for a half-maximal effect (EC50) not below 10 µM and an Emax of less than 50%.
On to `CCC1(C(=O)NS(=O)(=O)c2cccc(F)c2C#N)CCc2c(Cl)cccc21` (centres unmarked) [III-127], for which, at F508delCFTR [1], the EC50 was not below 10 µM and the “Maximum % activity (with co-corrector)” value is listed as “+ (<150)”. In addition, on F508delCFTR [2], the EC50 was not below 10 µM and the maximal effect (Emax) was less than 50%.
With `CCC1(C(=O)NS(=O)(=O)C2(C)CC2)CCc2c(Cl)cccc21` (centres unmarked) [III-128], on F508delCFTR [1], the EC50 is 3 to 10 µM; the “Maximum % activity (with co-corrector)” value was “++ (≥150 and <350)”. At F508delCFTR [2], this compound showed a half-maximal effective concentration (EC50) of 3 to 10 µM and an Emax of less than 50%.
Consider `CCC1(C(=O)NS(=O)(=O)c2ccc(-c3ccccc3)cc2)CCc2c(Cl)cccc21` (centres unmarked) [III-129], for which, at F508delCFTR [1], the EC50 fell in the range of 3 to 10 µM; the “Maximum % activity (with co-corrector)” value is “++ (≥150 and <350)”. At F508delCFTR [2], this compound had an EC50 not below 10 µM and an Emax of less than 50%.
As to `CCC1(C(=O)NS(=O)(=O)c2ccc(CN(C)C)cc2)CCc2c(Cl)cccc21` (centres unmarked) [III-130], on F508delCFTR [1], the concentration for a half-maximal effect (EC50) is not below 10 µM and the “Maximum % activity (with co-corrector)” value is reported as “+ (<150)”. On F508delCFTR [2], the EC50 is not below 10 µM and the Emax is less than 50%.
Turning to `CCC1(C(=O)NS(=O)(=O)c2c(C)nn(C)c2Cl)CCc2c(Cl)cccc21` (centres unmarked) [III-131], at F508delCFTR [1], the concentration for a half-maximal effect (EC50) was not below 10 µM and the “Maximum % activity (with co-corrector)” value is on record as “+ (<150)”. On F508delCFTR [2], this compound registered an EC50 not below 10 µM and an Emax of less than 50%.
With `CCC1(C(=O)NS(=O)(=O)c2cccnc2Cl)CCc2c(Cl)cccc21` (centres unmarked) [III-132], at F508delCFTR [1], the EC50 is 3 to 10 µM; the “Maximum % activity (with co-corrector)” value was “++ (≥150 and <350)”. In addition, at F508delCFTR [2], the EC50 was not below 10 µM and the Emax was less than 50%.
Turning to `CCC1(C(=O)NS(=O)(=O)c2ccc3ncccc3c2)CCc2c(Cl)cccc21` (centres unmarked) [III-133], at F508delCFTR [1], the EC50 was 3 to 10 µM; the “Maximum % activity (with co-corrector)” value is “++ (≥150 and <350)”. Also, at F508delCFTR [2], the EC50 is not below 10 µM and the Emax was less than 50%.

Values taken from patent US20180244611A1, “Modulators of the Cystic Fibrosis Transmembrane Conductance Regulator Protein and Methods of Use” (AbbVie S.à.r.l., priority 2017, published 2018).
